Measured values reported in patent US9980943B2, “Methods of treating muscular dystrophy” (BOARD OF REGENTS OF THE NEVADA SYSTEM OF HIGHER EDUCATION, …, priority 2013, dated 2018).

Key:
Type in all cases: cell-based, mouse
[1] = test system: β-galactosidase in CMV-LacZ C2C12 myoblasts; assay: CMV-LacZ secondary screen in C2C12 myoblasts (β-Gal stabilizing assay); settings: CMV-LacZ C2C12 myoblasts
Outline: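 CMV-LacZ C2C12 line (clonal, FDG-screened); myoblasts/myotubes dosed 0.5–40 μM (0.5, 1, 5, 10, 20, 40 μM); n=2 per point; β-gal stabilization read-out.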

[2] = test system: α7 integrin (LacZ reporter in α7+/LacZ myotubes); assay: Myotube α7 integrin FDG assay (Burkin assay in myotubes, 96-well); settings: myotubes
[3] = test system: β-galactosidase in CMV-LacZ C2C12 myotubes; assay: CMV-LacZ secondary screen in C2C12 myotubes (β-Gal stabilizing assay); settings: C2C12 CMV-LacZ myotubes, fold relative to DMSO
Outline: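 Dose-response runs at 0.5–40 μM (0.5, 1, 5, 10, 20, 40 μM; N=2 per point) used a clonal C2C12 line carrying CMV-LacZ. Cells were assayed as myoblasts or as differentiated myotubes, and β-galactosidase levels were read with the FDG fluorogenic substrate.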

[4] = test system: α7 integrin (LacZ reporter in α7βgal+/− myoblasts); assay: Myoblast α7+/LacZ integrin FDG assay (Burkin assay in myoblasts, 96-well); settings: α7+/LacZ myoblasts, 96-well

| Structure (SMILES) | CMV-LACZ in Myoblasts (β-galactosidase activity relative to DMSO) ([1]; 0.5 uM) | CMV-LACZ in Myoblasts (β-galactosidase activity relative to DMSO) ([1]; 1 uM) | CMV-LACZ in Myoblasts (β-galactosidase activity relative to DMSO) ([1]; 5 uM) | CMV-LACZ in Myoblasts (β-galactosidase activity relative to DMSO) ([1]; 10 uM) | CMV-LACZ in Myoblasts (β-galactosidase activity relative to DMSO) ([1]; 20 uM) | CMV-LACZ in Myoblasts (β-galactosidase activity relative to DMSO) ([1]; 40 uM) | Burkin Assay in Myotubes, α7 integrin LacZ reporter signal relative to DMSO ([2]; 0.5 uM) | Burkin Assay in Myotubes, α7 integrin LacZ reporter signal relative to DMSO ([2]; 1 uM) | Burkin Assay in Myotubes, α7 integrin LacZ reporter signal relative to DMSO ([2]; 5 uM) | Burkin Assay in Myotubes, α7 integrin LacZ reporter signal relative to DMSO ([2]; 10 uM) | Burkin Assay in Myotubes, α7 integrin LacZ reporter signal relative to DMSO ([2]; 20 uM) | Burkin Assay in Myotubes, α7 integrin LacZ reporter signal relative to DMSO ([2]; 40 uM) | CMV-LACZ in Myotubes, signal relative to DMSO ([3]; 0.5 uM) | CMV-LACZ in Myotubes, signal relative to DMSO ([3]; 1 uM) | CMV-LACZ in Myotubes, signal relative to DMSO ([3]; 5 uM) | CMV-LACZ in Myotubes, signal relative to DMSO ([3]; 10 uM) | CMV-LACZ in Myotubes, signal relative to DMSO ([3]; 20 uM) | CMV-LACZ in Myotubes, signal relative to DMSO ([3]; 40 uM) | Burkin Assay in Myoblasts, signal relative to DMSO ([4]; 0.5 uM) | Burkin Assay in Myoblasts, signal relative to DMSO ([4]; 1 uM) | other results |
| --- | --- | --- | --- | --- | --- | --- | --- | --- | --- | --- | --- | --- | --- | --- | --- | --- | --- | --- | --- | --- | --- |
| O=C1CCC(C(=O)N2CCSCC2)CN1Cc1ccc(Cl)cc1 (stereo not drawn) [MLS001090787-01] | 0.9196 | 0.9754 | 0.9700 | 0.8594 | 0.7533 | 0.5907 | 1.054 | 1.168 | 1.083 | 1.195 | 1.209 | 1.5544 | 1.0009 | 0.9055 | 1.0126 | 1.1178 | 0.8990 | 0.9450 | 1.142 | 0.9734 | Burkin Assay in Myoblasts, signal relative to DMSO ([4]; 5 uM): 1.263; Burkin Assay in Myoblasts, signal relative to DMSO ([4]; 10 uM): 1.46; Burkin Assay in Myoblasts, signal relative to DMSO ([4]; 20 uM): 1.265; Burkin Assay in Myoblasts, signal relative to DMSO ([4]; 40 uM): 1.222 |
| CC(C)CN(C(=O)c1cccc(Cl)c1)c1c(N)n(Cc2ccccc2)c(=O)[nH]c1=O [MLS002163670-01] | 1.1806 | 0.8738 | 0.8671 | 0.9725 | 0.8611 | 1.4715 | 1.223 | 1.294 | 0.9778 | 1.072 | 0.8526 | 0.735 | 0.9237 | 1.2044 | 0.9788 | 0.8898 | 1.1659 | 1.1235 | 1.117 | 1.234 | Burkin Assay in Myoblasts, signal relative to DMSO ([4]; 5 uM): 1.012; Burkin Assay in Myoblasts, signal relative to DMSO ([4]; 10 uM): 0.9468; Burkin Assay in Myoblasts, signal relative to DMSO ([4]; 20 uM): 0.8972; Burkin Assay in Myoblasts, signal relative to DMSO ([4]; 40 uM): 0.7779 |
| COc1ccc(CNC(=O)C2CCCN(S(=O)(=O)c3c(C)noc3/C=C/N(C)C)C2)cc1 (stereo not drawn) [MLS000925023-01] | 1.0703 | 0.9629 | 0.9762 | 0.8397 | 0.5504 | 0.3278 | 1.16 | 1.24 | 0.8969 | 0.8784 | 0.8004 | 0.7318 | 0.7505 | 1.1333 | 1.1638 | 0.8859 | 1.1565 | 1.1106 | 0.996 | 1.035 | Burkin Assay in Myoblasts, signal relative to DMSO ([4]; 5 uM): 0.9523; Burkin Assay in Myoblasts, signal relative to DMSO ([4]; 10 uM): 0.7957; Burkin Assay in Myoblasts, signal relative to DMSO ([4]; 20 uM): 0.7765; Burkin Assay in Myoblasts, signal relative to DMSO ([4]; 40 uM): 0.4179 |
| CCOC(=O)c1nnn(-c2nonc2OC)c1-c1ccccc1 [MLS000045588-01] | 0.7647 | 0.8372 | 1.0245 | 1.0611 | 0.8056 | 1.2167 | 1.077 | 1.099 | 1.135 | 1.036 | 1.063 | 0.9546 | 0.9059 | 0.8607 | 1.2294 | 0.9776 | 1.0494 | 0.9424 | 1.016 | 1.107 | Burkin Assay in Myoblasts, signal relative to DMSO ([4]; 5 uM): 1.075; Burkin Assay in Myoblasts, signal relative to DMSO ([4]; 10 uM): 0.917; Burkin Assay in Myoblasts, signal relative to DMSO ([4]; 20 uM): 1.003; Burkin Assay in Myoblasts, signal relative to DMSO ([4]; 40 uM): 0.8919 |
| CCOc1ccc(Br)cc1S(=O)(=O)Nc1ccc(C(=O)Nc2ccccc2OC)cc1 [MLS000418650-01] | 0.9237 | 0.9533 | 1.0080 | 0.8344 | 1.1523 | 1.1323 | 1.086 | 1.004 | 1.032 | 0.9654 | 0.7581 | 0.7593 | 1.0086 | 1.2819 | 1.0198 | 1.1746 | 1.1180 | 1.2260 | 0.9156 | 1.069 | Burkin Assay in Myoblasts, signal relative to DMSO ([4]; 5 uM): 1.13; Burkin Assay in Myoblasts, signal relative to DMSO ([4]; 10 uM): 0.9633; Burkin Assay in Myoblasts, signal relative to DMSO ([4]; 20 uM): 0.9104; Burkin Assay in Myoblasts, signal relative to DMSO ([4]; 40 uM): 0.9445 |
